# Earlier results, collected in patent publication US11192861B2, “Human plasma kallikrein inhibitors” (BioCryst Pharmaceuticals, Inc., priority 2014, dated 2021).
# Tested on: hereditary angioedema (HAE)
Compound,edema in patients with hereditary angioedema (patients with HAE),effectiveness in treating HAE (in vivo)
ecallantide [DX-88],alleviates edema,–
NC(N)=NCCC[C@@H](N)C(=O)N[C@@H](CCCN=C(N)N)C(=O)N1CCC[C@H]1C(=O)N1C[C@H](O)C[C@H]1C(=O)NCC(=O)N[C@@H](Cc1cccs1)C(=O)N[C@@H](CO)C(=O)N1Cc2ccccc2C[C@@H]1C(=O)N1[C@H](C(=O)N[C@@H](CCCN=C(N)N)C(=O)O)C[C@@H]2CCCC[C@@H]21 [Icatibant],–,effective in treating HAE
